Patent publication US20240287463A1, “INDUCIBLE TISSUE CONSTRUCTS AND USES THEREOF” (Massachusetts Institute of Technology, priority 2020, published 2024)

Experiments:
unmodified J2s = test: CID exposure of MPCCs plated with unmodified fibroblasts; type: cell-based; settings: data not shown
Excerpt: Specifically, MPCC were fabricated as described previously (S. R. Khetani and S. N. Bhatia (2005) Nat. Biotechnol 26, 120; S. March et al. (2015) Nat. Protoc. 10, 2007). Briefly, collagen was adsorbed in each well of a 96 well plate (glass bottom), and then patterned using an elastomeric polydimethysiloxane mold and oxygen plasma gas ablation. Human hepatocytes were thawed and seeded (70 k/well) on the collagen islands (500 μm with 1,200 μm center-to-center spacing). Adhered hepatocytes (˜10 k/well) were allowed to spread overnight before fibroblasts were seeded for co-culture (7 k/well). Supernatant was collected from cultures every other day and stored at −20° C. Human albumin was quantified using an enzyme-linked immunosorbent assay using a sheep anti-rat albumin antibody (ELISA) (Bethyl Laboratories) and 3,3′,5,5′-tetramethylbenzidine (TMB, Thermo Fisher). Urea concentration was measured using a colorimetric (diacetylmonoxime) assay with acid and heat (Stanbio Labs). CYP3A4 activity was assessed with the luminogenic P450-GloTM CYP450 assay kit (Promega) for nonlytic assays using cultured cells. Cultures were pre-treated with 2 μM rifampin or 1:1,000 DMSO vehicle control prepared in hepatocyte maintenance media for 72 hours (daily replenishment) where indicated. […]

iCasp9-GFP fibroblasts = test: viability of hydrogel-encapsulated monoculture fibroblasts; type: cell-based
iCasp9-HDFs = test: live imaging of fibroblast removal in the 3D microfluidic co-culture device; type: cell-based, human; settings: 10 nM CID after 7 days of co-culture
Method: More specifically, the molds for the 2-channel microfluidic devices were constructed using stereolithography (Proto Labs). Polydimethylsiloxane (PDMS) was cured at a standard mixing ratio overnight at 60° C. in the mold, and individual devices were cut and plasma-bonded to glass slides. To enhance ECM bonding to PDMS, the surface inside the tissue chamber of the devices was functionalized with 0.01% poly-L-lysine and 1% glutaraldehyde following plasma-activation and washed overnight in DI water. On the day of seeding, devices were soaked in 70% ethanol (EtOH) and dried. Acupuncture needles (300 μm diameter) (Hwato) were blocked in 0.1% (w/v) bovine serum albumin (BSA) (Sigma) in phosphate buffer saline (PBS) for 45 minutes and inserted through the two needle guides. Devices with needles were UV-sterilized for 15 minutes. Once the needles were inserted, a fibrinogen solution containing human umbilical vein endothelial cells (HUVECs) and growth-arrested human dermal fibroblasts (HDFs) were added into the tissue chamber with thrombin. To prepare the cells for seeding, HDFs or iCasp-9 HDFs were growth-arrested with 10 μg/mL mitomycin in FGM-2 for 2.5 hours and thoroughly washed 5 times in FBM. Both HUVECs and HDFs were lifted from culture plates using TrypLE Express (Gibco), centrifuged at 200 g for 4 minutes, and resuspended to a concentration of 20 million cells/mL in EGM-2. […]

For `CC[C@H](C(=O)N1CCCC[C@H]1C(=O)O[C@H](CCc1ccc(OC)c(OC)c1)c1cccc(OCC(=O)NCC(CNC(=O)COc2cccc([C@@H](CCc3ccc(OC)c(OC)c3)OC(=O)[C@@H]3CCCCN3C(=O)[C@@H](CC)c3cc(OC)c(OC)c(OC)c3)c2)CN(C)C)c1)c1cc(OC)c(OC)c(OC)c1` [CID, AP20187], the “effect of CID exposure on unmodified J2s in MPCCs” value (unmodified J2s) was “unaffected”, the fibroblast viability (iCasp9-GFP fibroblasts; hydrogel-encapsulated, after 6 hours of CID) was “undetectable” and the fibroblast regrowth (iCasp9-GFP fibroblasts; over the course of 21 days after CID) was “did not regrow”. For the same molecule, the “time by which most of the fibroblast population was removed” value (iCasp9-HDFs) was at most 10 h and the “time to rapid rounding of iCasp9-HDFs” value (iCasp9-HDFs) was at most 5 h.
